Patent US7425433B2, “Carboxylic acid reductase polypeptide, nucleotide sequence encoding same and methods of use” (priority 2003, dated 2008)
Read-outs that look alike come from different tables or passages of the source.

Assays:
[1] = tested on: E. coli BL21-CodonPlus(DE3)-RP carrying pHAT-305; assay: In vivo whole cell reactions; format: cell-based; details: IPTG-induced cultures, 1 mg/ml substrate acid
Procedure: In vivo whole cell reactions were typically conducted with 100 ml cultures of E. coli BL21-CodonPlus®(DE3)-RP carrying pHAT-305. Cultures were induced by 1 mM IPTG for 4 hrs before receiving 1 mg/ml of benzoic acid, vanillic acid, or ferulic acid.
Samples of approximately 2 mL were removed at various time intervals, sample pH was adjusted to pH 2.0 with 6N HCl, and samples were extracted with 1 ml ethyl acetate, and centrifuged for 2 min at 1,000×g. Organic phases were removed and used to spot silica gel GF254 TLC plates for analysis, and comparison with authentic standards of benzaldehyde, vanillin and coniferaldehyde. For metabolite isolation, reactions were stopped by adjustment of mixtures to pH 2.0 with 6N HCl, and extracted three times with half-volumes of ethyl acetate. After removal of solvent by rotary evaporation, reduction products were purified by preparative TLC for analysis and comparison with authentic standards.

[2] = target: T1, carboxylic acid reductase (CAR) (Nocardia iowensis, UniProt Q6RKB1, L218S); format: biochemical, Nocardia sp. NRRL 5646; details: for Km: cofactors of purified HAT-CAR, Cleland's kinetics program; for Specific activity: 25° C.
T1 construct: made in house; host or cells: E. coli BL21-CodonPlus(DE3)-RP carrying pHAT-305
Procedure: Enzyme assay. The standard reaction mixture contained 1 mM ATP, 0.15 mM NADPH, 5 mM sodium benzoate, 10 mM MgCl2 and enzyme in 0.05 M Tris buffer (pH 7.5) containing 1 mM EDTA, 1 mM DTT and 10% glycerol (vol/vol), in a final volume of 1.4 ml. The reference cuvette contained all components except benzoate. Reactions were initiated by adding enzyme, and were monitored by recording the absorption decrease at 340 nm at 25° C. with a Shimadzu UV-2010PC scanning spectrophotometer. One unit of the enzyme was defined as the amount of enzyme that catalyzed the reduction of 1 µmol of benzoate to benzaldehyde.min^−1 under standard assay condition. Protein concentrations were measured by the Bradford protein microassay (4) with bovine serum albumin as the standard.

Molecule	in vivo transformation by whole cells [1]	Km [2]	also measured
O=C(O)c1ccccc1 [benzoate, benzoic acid]	quickly converted to benzyl alcohol		
NC(=O)C1=CN([C@@H]2O[C@H](COP(=O)(O)OP(=O)(O)OC[C@H]3O[C@@H](n4cnc5c(N)ncnc54)[C@H](OP(=O)(O)O)[C@@H]3O)[C@@H](O)[C@H]2O)C=CC1 [NADPH]		57 ± 3.6 µM	
Nc1ncnc2c1ncn2[C@@H]1O[C@H](COP(=O)(O)OP(=O)(O)OP(=O)(O)O)[C@@H](O)[C@H]1O [ATP]		69 ± 6.6 µM	
COc1cc(C=O)ccc1O [vanillin]	converted to their corresponding alcohols		
COc1cc(/C=C/C=O)ccc1O [coniferyl aldehyde]	converted to their corresponding alcohols		
HAT-CAR: HAT-tagged recombinant Nocardia carboxylic acid reductase fusion protein expressed in E. coli from pHAT-305 (protein, left off: small tags and cut ends) AVDSPDERLQRRIAQLFAEDEQVKAARPLEAVSAAVSAPGMRLAQIAATVMAGYADRPAAGQRAFELNTDDATGRTSLRLLPRFETITYRELWQRVGEVAAAWHHDPENPLRAGDFVALLGFTSIDYATLDLADIHLGAVTVPLQASAAVSQLIAILTETSPRLLASTPEHLDAAVECLLAGTTPERLVVFDYHPEDDDQRAAFESARRRLADAGSSVIVETLDAVRARGRDLPAAPLFVPDTDDDPLALLIYTSGSTGTPKGAMYTNRLAATMWQGNSMLQGNSQRVGINLNYMPMSHIAGRISLFGVLARGGTAYFAAKSDMSTLFEDIGLVRPTEIFFVPRVCDMVFQRYQSELDRRSVAGADLDTLDREVKADLRQNYLGGRFLVAVVGSAPLAAEMKTFMESVLDLPLHDGYGSTEAGASVLLDNQIQRPPVLDYKLVDVPELGYFRTDRPHPRGELLLKAETTIPGYYKRPEVTAEIFDEDGFYKTGDIVAELEHDRLVYVDRRNNVLKLSQGEFVTVAHLEAVFASSPLIRQIFIYGSSERSYLLAVIVPTDDALRGRDTATLKSALAESIQRIAKDANLQPYEIPRDFLIETEPFTIANGLLSGIAKLLRPNLKERYGAQLEQMYTDLATGQADELLALRREAADLPVLETVSRAAKAMLGVASADMRPDAHFTDLGGDSLSALSFSNLLHEIFGVEVPVGVVVSPANELRDLANYIEAERNSGAKRPTFTSVHGGGSEIRAADLTLDKFIDARTLAAADSIPHAPVPAQTVLLTGANGYLGRFLCLEWLERLDKTGGTLICVVRGSDAAAARKRLDSAFDSGDPGLLEHYQQLAARTLEVLAGDIGDPNLGLDDATWQRLAETVDLIVHPAALVNHVLPYTQLFGPNVVGTAEIVRLAITARRKPVTYLSTVGVADQVDPAEYQEDSDVREMSAVRVVRESYANGYGNSKWAGEVLLREAHDLCGLPVAVFRSDMILAHSRYAGQLNVQDVFTRLILSLVATGIAPYSFYRTDADGNRQRAHYDGLPADFTAAAITALGIQATEGFRTYDVLNPYDDGISLDEFVDWLVESGHPIQRITDYSDWFHRFETAIRALPEKQRQASVLPLLDAYRNPCPAVRGAILPAKEFQAAVQTAKIGPEQDIPHLSAPLIDKYVSDLELLQLL			Specific activity ([2]; purification step: Crude extract): 0.009 U/mg; Specific activity ([2]; purification step: DEAE Sepharose): 0.09 U/mg; Specific activity ([2]; purification step: Talon Matrix): 0.066 U/mg; specific CAR activity ([2]; purified HAT-CAR): 0.11 μmol.min^−1.mg-^−1 protein; Vmax ([2]; purified recombinant HAT-CAR): 0.135±0.004 μmol.min^−1.mg^−1 protein
